“And” between values parts separate entries of the source, which are not always exact repeats. Identical values can stand only once. Toxic doses and inconclusive results are not listed.

The text below walks through data of PubChem BioAssay AID330 (DTP/NCI, 2004).

The experiment relates to P388 leukemia ip, CD2F1 mice, survival T/C. The experiment is described as follows: NCI In Vivo Anticancer Drug Screen. Data for tumor model P388 Leukemia (intraperitoneal) in CD2F1 (CDF1) mice. As to conditions: endpoint: median survival time, higher = longer survival. In short, it runs like this:
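Mice carrying the transplanted tumor received test compound or vehicle. Survival was recorded in each group, and the value is the treated-group measurement divided by that of the vehicle-treated control group.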

The mark [1] stands for this setting: dose: 100.0 mg/kg/injection, schedule: Q01DX009 (ip), vehicle: saline.
Where [2] appears, read: dose: 200.0 mg/kg/injection, schedule: Q01DX009 (ip), vehicle: saline.
Setting [3] is: dose: 100.0 mg/kg/injection, schedule: Q04DX003 (ip), vehicle: Klucel (hydroxypropylcellulose) (HPC).
Setting [4] is: dose: 200.0 mg/kg/injection, schedule: Q04DX003 (ip), vehicle: Klucel (hydroxypropylcellulose) (HPC).
The mark [5] stands for this setting: dose: 400.0 mg/kg/injection, schedule: Q04DX003 (ip), vehicle: Klucel (hydroxypropylcellulose) (HPC).
Setting [6] is: dose: 50.0 mg/kg/injection, schedule: Q01DX005 (ip), vehicle: Klucel (hydroxypropylcellulose) (HPC).
Setting [7] is: dose: 100.0 mg/kg/injection, schedule: Q01DX005 (ip), vehicle: Klucel (hydroxypropylcellulose) (HPC).
The mark [8] stands for this setting: dose: 200.0 mg/kg/injection, schedule: Q01DX005 (ip), vehicle: Klucel (hydroxypropylcellulose) (HPC).
Setting [9] is: dose: 100.0 mg/kg/injection, schedule: Q04DX002 (ip), vehicle: Klucel (hydroxypropylcellulose) (HPC).
Setting [10] is: dose: 60.0 mg/kg/injection, schedule: Q01DX005 (ip), vehicle: Klucel (hydroxypropylcellulose) (HPC).
[11] abbreviates: dose: 120.0 mg/kg/injection, schedule: Q01DX005 (ip), vehicle: Klucel (hydroxypropylcellulose) (HPC).

On to `C[n+]1c2ccccc2c2c3c(cccc31)C(=O)c1cc(Cl)ccc1-2` (tested in a mixture with another compound), for which the T/C (dose: 3.12 mg/kg/injection, schedule: Q01DX009 (ip), vehicle: water) was 106 % of control; the T/C (dose: 6.25 mg/kg/injection, schedule: Q01DX009 (ip), vehicle: water) was 98 % of control; the T/C (dose: 12.5 mg/kg/injection, schedule: Q01DX009 (ip), vehicle: water) is 98 % of control.
As for `COc1ccc(-c2cc3c(c4cc(OC)ccc24)C(=O)OC3=O)cc1`, the T/C (dose: 60.0 mg/kg/injection, schedule: Q01DX005 (ip), vehicle: saline with Tween-80) is 93 % of control; the T/C (dose: 120.0 mg/kg/injection, schedule: Q01DX005 (ip), vehicle: saline with Tween-80) was 97 % of control; the T/C (dose: 240.0 mg/kg/injection, schedule: Q01DX005 (ip), vehicle: saline with Tween-80) is 98 % of control.
Take `COc1cc[n+]([O-])cc1`: the T/C was 95 % of control under setting [1]; 90 % of control under setting [2]; 95 % of control (dose: 400.0 mg/kg/injection, schedule: Q01DX009 (ip), vehicle: saline).
On to `COC(=O)NN(C(=O)OC)C12CCCCC1N(C(=O)OC)N(C(=O)OC)c1c2ccc2cc(OC)ccc12` (configuration not stated), for which the T/C by setting is: (dose: 100.0 mg/kg/injection, schedule: Q01DX001 (ip), vehicle: Klucel (hydroxypropylcellulose) (HPC)) 96 % of control; (dose: 200.0 mg/kg/injection, schedule: Q01DX001 (ip), vehicle: Klucel (hydroxypropylcellulose) (HPC)) 92 % of control; (dose: 400.0 mg/kg/injection, schedule: Q01DX001 (ip), vehicle: Klucel (hydroxypropylcellulose) (HPC)) 91 % of control.
Turning to `CN=C(N)N/N=C(\C)c1ccc2ccc3ccccc3c2c1`, the T/C (dose: 50.0 mg/kg/injection, schedule: Q04DX002 (ip), vehicle: saline with Tween-80) was 105 % of control.
For the molecule `COc1ccc(CN2CCc3c(cccc3[N+](=O)[O-])C2)cc1`, the T/C under setting [3] was 98 % of control, the T/C under setting [4] is 103 % of control and the T/C under setting [5] was 96 % of control.
Take `N=C(N)c1ccc(N=Nc2c(O)c(C(=O)Nc3ccccc3)cc3ccccc23)cc1`: the T/C was 100 % of control under setting [6], 101 % of control under setting [7] and 100 % of control under setting [8].
Regarding `CC(Oc1ccccc1)C(=O)N=c1scc(-c2ccc(Br)cc2)n1-c1cccc2ccccc12` (configuration not stated), the T/C runs as follows: (dose: 6.25 mg/kg/injection, schedule: Q01DX009 (ip), vehicle: gum acacia) 106 % of control; (dose: 12.5 mg/kg/injection, schedule: Q01DX009 (ip), vehicle: gum acacia) 106 % of control; (dose: 25.0 mg/kg/injection, schedule: Q01DX009 (ip), vehicle: gum acacia) 105 % of control; (dose: 50.0 mg/kg/injection, schedule: Q01DX009 (ip), vehicle: gum acacia) 101 % of control; (dose: 100.0 mg/kg/injection, schedule: Q01DX009 (ip), vehicle: gum acacia) 92 % of control; (dose: 200.0 mg/kg/injection, schedule: Q01DX009 (ip), vehicle: gum acacia) 98 % of control.
`CC(=N\NC(N)=S)/C(C)=N/Nc1ccccc1`: the T/C under setting [3] is 106 % of control, the T/C under setting [4] is 100 % of control and the T/C under setting [5] was 100 % of control.
Consider `c1ccc(N2CCCN2c2ccccc2)cc1`, for which the T/C runs as follows: (dose: 100.0 mg/kg/injection, schedule: Q04DX002 (ip), vehicle: saline with Tween-80) 101 % of control; (dose: 200.0 mg/kg/injection, schedule: Q04DX002 (ip), vehicle: saline with Tween-80) 99 % of control; (dose: 400.0 mg/kg/injection, schedule: Q04DX002 (ip), vehicle: saline with Tween-80) 98 % of control.
Take `CCCc1c(C(=O)OCCCN(CC)CC)c(C(=O)OCCCN(CC)CC)c(CCC)n1-c1ccccc1`: the T/C (dose: 25.0 mg/kg/injection, schedule: Q01DX005 (ip), vehicle: saline) was 105 % of control.
In the case of `CC(C)CCOCCOCCCN1C(=O)C2C3C=CC(C3)C2C1=O` (configuration not stated), the T/C runs as follows: under setting [6], 99 % of control; under setting [7], 100 % of control.
Turning to `C=C(C)C(=O)OC1C/C(CO)=C\C(OC(C)=O)C/C(C)=C/C2OC(=O)C(=C)C21` (configuration not stated), the T/C was 113 % of control (dose: 3.75 mg/kg/injection, schedule: Q01DX009 (ip), vehicle: saline + alcohol); 115 % of control (dose: 7.5 mg/kg/injection, schedule: Q01DX009 (ip), vehicle: saline + alcohol); 120 % of control (dose: 15.0 mg/kg/injection, schedule: Q01DX009 (ip), vehicle: saline + alcohol).
On to `CCC1c2ccc3cc(OC)ccc3c2CCC1(C)C(=O)O` (configuration not stated), for which the T/C is 100 % of control under setting [6], 98 % of control under setting [7] and 100 % of control under setting [8].
Regarding `O=C(S)CC(O)(CCl)c1ccc(-c2ccccc2)cc1` (configuration not stated), the T/C reads like this: under setting [9], 113 % of control; (dose: 200.0 mg/kg/injection, schedule: Q04DX002 (ip), vehicle: Klucel (hydroxypropylcellulose) (HPC)) 101 % of control.
As for `Brc1ccc(Nc2ccccn2)cc1`, the T/C is, setting by setting: (dose: 12.5 mg/kg/injection, schedule: Q01DX009 (ip), vehicle: other) 108 % of control; (dose: 25.0 mg/kg/injection, schedule: Q01DX009 (ip), vehicle: other) 97 % of control; (dose: 50.0 mg/kg/injection, schedule: Q01DX009 (ip), vehicle: other) 105 % of control; (dose: 100.0 mg/kg/injection, schedule: Q01DX009 (ip), vehicle: other) 105 % of control; (dose: 200.0 mg/kg/injection, schedule: Q01DX009 (ip), vehicle: other) 106 % of control.
Turning to `ClCCOCCOc1c(Cl)cc(Cl)cc1Cl`, the T/C by setting is: (dose: 100.0 mg/kg/injection, schedule: Q01DX009 (ip), vehicle: Klucel (hydroxypropylcellulose) (HPC)) 93 % of control; (dose: 200.0 mg/kg/injection, schedule: Q01DX009 (ip), vehicle: Klucel (hydroxypropylcellulose) (HPC)) 103 % of control; (dose: 400.0 mg/kg/injection, schedule: Q01DX009 (ip), vehicle: Klucel (hydroxypropylcellulose) (HPC)) 100 % of control.
For `Cc1ncc(CO)c(/C=N/NC(=O)c2ccncc2)c1O`, the T/C runs as follows: under setting [10], 102 % of control; under setting [11], 102 % of control; (dose: 240.0 mg/kg/injection, schedule: Q01DX005 (ip), vehicle: Klucel (hydroxypropylcellulose) (HPC)) 101 % of control.
For the molecule `CB1NN=C(C)c2ccsc21`, the T/C (dose: 50.0 mg/kg/injection, schedule: Q01DX009 (ip), vehicle: saline with Tween-80) is 110 % of control.
As for `COC(=O)c1nc(N)nc(C(=O)OC)c1C(=O)c1ccc(OC)cc1`, the T/C reads like this: under setting [10], 101 % of control; under setting [11], 101 % of control.
For the molecule `CC(C)(C)SC(=O)CC1(O)CCCCC1`, the T/C reads like this: (dose: 25.0 mg/kg/injection, schedule: Q04DX002 (ip), vehicle: Klucel (hydroxypropylcellulose) (HPC)) 98 % of control; (dose: 50.0 mg/kg/injection, schedule: Q04DX002 (ip), vehicle: Klucel (hydroxypropylcellulose) (HPC)) 100 % of control; under setting [9], 100 % of control.
On to `Cc1ncc(C[n+]2csc(CCO)c2C)c(N)n1`, for which the T/C is, setting by setting: (dose: 50.0 mg/kg/injection, schedule: Q01DX009 (ip), vehicle: saline) 108 % of control; under setting [1], 105 % of control; under setting [2], 97 % of control.
With `Cc1ccc(S(=O)(=O)C(Cc2cc(Cl)cc(Cl)c2O)C(=O)c2ccccc2)cc1` (configuration not stated), the T/C is 101 % of control under setting [6], 90 % of control under setting [7] and 92 % of control under setting [8].
For the molecule `NCCCNCCCCNC(=O)C(O)NC(=O)CCCCCCN=C(N)N` (configuration not stated), the T/C by setting is: (dose: 4.4 mg/kg/injection, schedule: Q01DX009 (ip), vehicle: other) 193 % of control and 195 % of control and 198 % of control; (dose: 4.4 mg/kg/injection, schedule: Q01DX009 (ip), vehicle: saline) 193 % of control and 194 % of control and 200 % of control; (dose: 4.5 mg/kg/injection, schedule: Q01DX009 (ip), vehicle: other) 193 % of control; (dose: 4.5 mg/kg/injection, schedule: Q01DX009 (ip), vehicle: saline) 188 % of control and 196 % of control; (dose: 6.25 mg/kg/injection, schedule: Q01DX005 (ip), vehicle: saline) 159 % of control; (dose: 12.5 mg/kg/injection, schedule: Q01DX005 (ip), vehicle: saline) 165 % of control and 172 % of control. For the same molecule, for the setting “dose: 34.0 mg/kg/injection, schedule: Q01DX009 (ip), vehicle: saline”, the T/C was 205 % of control.
